Assay results as given in patent US20090105349A1, “ANDROGEN MODULATORS” (WARNER-LAMBERT COMPANY LLC, priority 2004, published 2009).
Numbering of substitutions follows the chain as printed. pIC50: −log10 of the molar value.

Assays:
[1] = molecular target: T1, hAR (human androgen receptor) (Homo sapiens, UniProt P10275); test: Competitive hAR binding assay with 3H-DHT tracer; details: baculovirus/Sf9 hAR extract, 1 nM 3H-DHT, one hour at 4° C; mean of multiple tests; read-out: AR Binding IC50
T1 construct: made in house; host or cells: baculovirus/Sf9 insect cells (crude extract)
T1 sequence (P10275 1-920): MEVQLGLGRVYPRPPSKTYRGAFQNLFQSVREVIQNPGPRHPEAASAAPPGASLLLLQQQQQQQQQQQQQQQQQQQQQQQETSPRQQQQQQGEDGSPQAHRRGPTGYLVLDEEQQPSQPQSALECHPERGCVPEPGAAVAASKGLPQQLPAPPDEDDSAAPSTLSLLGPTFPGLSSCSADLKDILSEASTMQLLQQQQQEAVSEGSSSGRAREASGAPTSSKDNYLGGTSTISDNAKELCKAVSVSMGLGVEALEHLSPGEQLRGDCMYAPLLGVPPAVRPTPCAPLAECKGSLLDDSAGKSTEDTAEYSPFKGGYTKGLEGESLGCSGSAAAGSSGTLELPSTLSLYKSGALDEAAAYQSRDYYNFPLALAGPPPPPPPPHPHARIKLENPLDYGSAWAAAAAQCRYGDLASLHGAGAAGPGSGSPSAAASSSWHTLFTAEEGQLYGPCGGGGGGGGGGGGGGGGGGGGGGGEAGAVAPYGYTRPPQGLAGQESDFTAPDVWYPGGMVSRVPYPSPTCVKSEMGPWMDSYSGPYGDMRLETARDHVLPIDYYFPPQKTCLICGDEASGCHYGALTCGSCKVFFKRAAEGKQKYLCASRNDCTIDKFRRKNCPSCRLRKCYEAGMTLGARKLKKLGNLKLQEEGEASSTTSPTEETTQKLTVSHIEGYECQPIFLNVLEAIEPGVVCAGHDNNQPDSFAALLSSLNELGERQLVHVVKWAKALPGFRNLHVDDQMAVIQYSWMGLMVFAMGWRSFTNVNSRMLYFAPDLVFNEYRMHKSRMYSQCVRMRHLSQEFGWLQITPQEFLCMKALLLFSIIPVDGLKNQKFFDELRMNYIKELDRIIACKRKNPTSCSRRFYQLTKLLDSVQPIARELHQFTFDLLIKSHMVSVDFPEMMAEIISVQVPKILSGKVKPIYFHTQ

[2] = molecular target: T2, androgen receptor in MDA-MB453-MMTV clone 54-19 cells (Homo sapiens, UniProt P10275); test: AR antagonist cell assay (MMTV-luciferase reporter); type: cell-based; details: read-out: AR Cell IC50; MDA-MB453-MMTV clone 54-19, inhibition of DHT induced luciferase, 17 hr; mean of multiple tests
T2 sequence (P10275 1-920 Q868H): T1 sequence (P10275 1-920) with Q868H

CSc1ccccc1Oc1ccc(C#N)cc1Cl [Example 5, 3-Chloro-4-(2-methylsulfanyl-phenoxy)-benzonitrile]
pIC50 [1]: 6.51
pIC50 [2]: 7.32
